Source: US9771369B2, “Compounds and methods for kinase modulation, and indications therefor” (Plexxikon Inc., priority 2014, dated 2017)

Key:
c-kit mutant D816V = c-kit mutant D816V (Homo sapiens (Human), UniProt P10721, D816V/DEL694-753); assay: c-Kit mutant D816V biochemical assay (AlphaScreen kinase activity)
How it was run: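 AlphaScreen with streptavidin donor and PY30 acceptor beads read phosphotyrosine on biotin-(E4Y)10 substrate (30 nM). Enzyme: E. coli-expressed N-His c-Kit D816V, residues 551-934 lacking kinase insert 694-753. Reaction 30 min at room temperature, 10 μM ATP, 5% DMSO; IC50 fitted over 8 three-fold dilutions.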

[1] = system: BaF3-FL KIT D816V or BaF3-FL KIT V560G/D816V cell line; assay: Cell-based assays of c-Kit mutant kinase activity (cell proliferation, ATPlite); details: at least one of the c-kit cell assays of Example 7
How it was run: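 BaF3 cells dependent on transfected full-length human KIT D816V or V560G/D816V (pCI-Neo, CMV promoter) were seeded at 1×10^4 cells/well and exposed to 8-point 1:3 dilutions from 10 μM top (0.2% DMSO) for three days at 37° C. ATPlite luminescence gave cell number; IC50 from concentration-response.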

Sequence of c-kit mutant D816V (P10721 other isoform, or with tags, fused parts or gaps D816V/del 694-753): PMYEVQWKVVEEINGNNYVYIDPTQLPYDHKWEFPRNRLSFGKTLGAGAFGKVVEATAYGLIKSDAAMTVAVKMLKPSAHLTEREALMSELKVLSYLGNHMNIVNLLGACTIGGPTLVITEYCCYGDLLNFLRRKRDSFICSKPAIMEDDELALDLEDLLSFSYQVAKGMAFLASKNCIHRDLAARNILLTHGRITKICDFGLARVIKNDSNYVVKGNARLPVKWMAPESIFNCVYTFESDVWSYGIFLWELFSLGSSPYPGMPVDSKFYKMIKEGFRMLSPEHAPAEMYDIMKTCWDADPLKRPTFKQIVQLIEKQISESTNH

SMILES	IC50 (c-kit mutant D816V)	IC50 [1]
COc1cccc(-c2[nH]c(C3(C)CCN(c4ncnc5[nH]c(-c6ccc(OCC(=O)O)cc6)cc45)CC3)nc2C)c1 [P-3221, 2-[4-[4-[4-[5-(3-methoxyphenyl)-4-methyl-1H-imidazol-2-yl]-4-methyl-1-piperidyl]-7H-pyrrolo[2,3-d]pyrimidin-6-yl]phenoxy]acetic acid]	0.0001 to 1 µM	< 10000 nM
CNC(=O)c1ccc(-c2cc3c(N4CCC(C)(c5nc(C)c(-c6cccc(OC)c6)[nH]5)CC4)ncnc3[nH]2)cn1 [P-3222, 5-[4-[4-[5-(3-methoxyphenyl)-4-methyl-1H-imidazol-2-yl]-4-methyl-1-piperidyl]-7H-pyrrolo[2,3-d]pyrimidin-6-yl]-N-methyl-pyridine-2-carboxamide]	0.0001 to 1 µM	< 10000 nM
COc1cccc(-c2[nH]c(C3(C)CCN(c4ncnc5[nH]c(-c6ccc(N7CCOCC7)nc6)cc45)CC3)nc2C)c1 [P-3223, 4-[5-[4-[4-[5-(3-methoxyphenyl)-4-methyl-1H-imidazol-2-yl]-4-methyl-1-piperidyl]-7H-pyrrolo[2,3-d]pyrimidin-6-yl]-2-pyridyl]morpholine]	0.0001 to 1 µM	< 10000 nM
CCOc1ccc(-c2[nH]c(C3(C)CCN(c4ncnc5[nH]c(-c6ccc(OCC(=O)O)cc6)cc45)CC3)nc2C)cc1 [P-3224, 2-[4-[4-[4-[5-(4-ethoxyphenyl)-4-methyl-1H-imidazol-2-yl]-4-methyl-1-piperidyl]-7H-pyrrolo[2,3-d]pyrimidin-6-yl]phenoxy]acetic acid]	0.0001 to 1 µM	< 10000 nM
COc1cccc(-c2[nH]c(C3(C)CCN(c4ncnc5[nH]c(-c6ccc(C(N)=O)cc6)cc45)CC3)nc2C)c1 [P-3225, 4-[4-[4-[5-(3-methoxyphenyl)-4-methyl-1H-imidazol-2-yl]-4-methyl-1-piperidyl]-7H-pyrrolo[2,3-d]pyrimidin-6-yl]benzamide]	0.0001 to 1 µM	< 10000 nM
CCOc1ccc(-c2[nH]c(C3(C)CCN(c4ncnc5[nH]c(-c6ccc(C(=O)NC)nc6)cc45)CC3)nc2C)cc1 [P-3226, 5-[4-[4-[5-(4-ethoxyphenyl)-4-methyl-1H-imidazol-2-yl]-4-methyl-1-piperidyl]-7H-pyrrolo[2,3-d]pyrimidin-6-yl]-N-methyl-pyridine-2-carboxamide]	0.0001 to 1 µM	< 10000 nM
CCOc1ccc(-c2[nH]c(C3(C)CCN(c4ncnc5[nH]c(-c6ccc(N7CCOCC7)nc6)cc45)CC3)nc2C)cc1 [P-3227, 4-[5-[4-[4-[5-(4-ethoxyphenyl)-4-methyl-1H-imidazol-2-yl]-4-methyl-1-piperidyl]-7H-pyrrolo[2,3-d]pyrimidin-6-yl]-2-pyridyl]morpholine]	0.0001 to 1 µM	< 10000 nM
COc1ccc(-c2[nH]c(C3(C)CCN(c4ncnc5[nH]c(-c6ccc(NS(C)(=O)=O)cc6)cc45)CC3)nc2C)cc1C [P-3228, N-[4-[4-[4-[5-(4-methoxy-3-methyl-phenyl)-4-methyl-1H-imidazol-2-yl]-4-methyl-1-piperidyl]-7H-pyrrolo[2,3-d]pyrimidin-6-yl]phenyl]methanesulfonamide]	0.0001 to 1 µM	< 10000 nM
CCOc1ccc(-c2[nH]c(C3(C)CCN(c4ncnc5[nH]c(-c6ccc(C(N)=O)cc6)cc45)CC3)nc2C)cc1 [P-3229, 4-[4-[4-[5-(4-ethoxyphenyl)-4-methyl-1H-imidazol-2-yl]-4-methyl-1-piperidyl]-7H-pyrrolo[2,3-d]pyrimidin-6-yl]benzamide]	0.0001 to 1 µM	< 10000 nM
CCOc1ccc(-c2[nH]c(C3(C)CCN(c4ncnc5[nH]c(-c6ccc(NS(C)(=O)=O)cc6)cc45)CC3)nc2C)cc1 [P-3230, N-[4-[4-[4-[5-(4-ethoxyphenyl)-4-methyl-1H-imidazol-2-yl]-4-methyl-1-piperidyl]-7H-pyrrolo[2,3-d]pyrimidin-6-yl]phenyl]methanesulfonamide]	0.0001 to 1 µM	< 10000 nM
Cc1nc(C2(C)CCN(c3ncnc4[nH]c(-c5ccc(C(N)=O)cc5)cc34)CC2)[nH]c1-c1cccc(OC(F)F)c1 [P-3231, 4-[4-[4-[5-[3-(difluoromethoxy)phenyl]-4-methyl-1H-imidazol-2-yl]-4-methyl-1-piperidyl]-7H-pyrrolo[2,3-d]pyrimidin-6-yl]benzamide]	0.0001 to 1 µM	< 10000 nM
Cc1nc(C2(C)CCN(c3ncnc4[nH]c(-c5ccc(NS(C)(=O)=O)cc5)cc34)CC2)[nH]c1-c1cccc(OC(F)F)c1 [P-3232, N-[4-[4-[4-[5-[3-(difluoromethoxy)phenyl]-4-methyl-1H-imidazol-2-yl]-4-methyl-1-piperidyl]-7H-pyrrolo[2,3-d]pyrimidin-6-yl]phenyl]methanesulfonamide]	0.0001 to 1 µM	< 10000 nM
Cc1nc(C2(C)CCN(c3ncnc4[nH]c(-c5ccc(OCC(=O)O)cc5)cc34)CC2)[nH]c1-c1cccc(OC(F)F)c1 [P-3233, 2-[4-[4-[4-[5-[3-(difluoromethoxy)phenyl]-4-methyl-1H-imidazol-2-yl]-4-methyl-1-piperidyl]-7H-pyrrolo[2,3-d]pyrimidin-6-yl]phenoxy]acetic acid]	0.0001 to 1 µM	< 10000 nM
COc1cccc(-c2[nH]c(C3(C)CCN(c4ncnc5[nH]c(-c6ccc(NS(C)(=O)=O)cc6)cc45)CC3)nc2C)c1 [P-3234, N-[4-[4-[4-[5-(3-methoxyphenyl)-4-methyl-1H-imidazol-2-yl]-4-methyl-1-piperidyl]-7H-pyrrolo[2,3-d]pyrimidin-6-yl]phenyl]methanesulfonamide]	0.0001 to 1 µM	< 10000 nM
CNC(=O)c1ccc(-c2cc3c(N4CCC(C)(c5nc(C)c(-c6ccc(C(F)F)cc6)[nH]5)CC4)ncnc3[nH]2)cn1 [P-3235, 5-[4-[4-[5-[4-(difluoromethyl)phenyl]-4-methyl-1H-imidazol-2-yl]-4-methyl-1-piperidyl]-7H-pyrrolo[2,3-d]pyrimidin-6-yl]-N-methyl-pyridine-2-carboxamide]	0.0001 to 1 µM	< 10000 nM
CNC(=O)c1ccc(-c2cc3c(N4CCC(C)(c5nc(C)c(-c6cccc(OC(F)F)c6)[nH]5)CC4)ncnc3[nH]2)cn1 [P-3236, 5-[4-[4-[5-[3-(difluoromethoxy)phenyl]-4-methyl-1H-imidazol-2-yl]-4-methyl-1-piperidyl]-7H-pyrrolo[2,3-d]pyrimidin-6-yl]-N-methyl-pyridine-2-carb oxamide]	0.0001 to 1 µM	< 10000 nM
Cc1nc(C2(C)CCN(c3ncnc4[nH]c(-c5ccc(N6CCOCC6)nc5)cc34)CC2)[nH]c1-c1ccc(C(F)F)cc1 [P-3237, 4-[5-[4-[4-[5-[4-(difluoromethyl)phenyl]-4-methyl-1H-imidazol-2-yl]-4-methyl-1-piperidyl]-7H-pyrrolo[2,3-d]pyrimidin-6-yl]-2-pyridyl]morpholine]	0.0001 to 1 µM	< 10000 nM
Cc1nc(C2(C)CCN(c3ncnc4[nH]c(-c5ccc(N6CCOCC6)nc5)cc34)CC2)[nH]c1-c1cccc(OC(F)F)c1 [P-3238, 4-[5-[4-[4-[5-[3-(difluoromethoxy)phenyl]-4-methyl-1H-imidazol-2-yl]-4-methyl-1-piperidyl]-7H-pyrrolo[2,3-d]pyrimidin-6-yl]-2-pyridyl]morpholine]	0.0001 to 1 µM	< 10000 nM
Cc1nc(C2(C)CCN(c3ncnc4[nH]c(-c5ccc(C(N)=O)cc5)cc34)CC2)[nH]c1-c1ccc(C(F)F)cc1 [P-3239, 4-[4-[4-[5-[4-(difluoromethyl)phenyl]-4-methyl-1H-imidazol-2-yl]-4-methyl-1-piperidyl]-7H-pyrrolo[2,3-d]pyrimidin-6-yl]benzamide]	0.0001 to 1 µM	< 10000 nM
Cc1nc(C2(C)CCN(c3ncnc4[nH]c(-c5ccc(OCC(=O)O)cc5)cc34)CC2)[nH]c1-c1ccc(C(F)F)cc1 [P-3240, 2-[4-[4-[4-[5-[4-(difluoromethyl)phenyl]-4-methyl-1H-imidazol-2-yl]-4-methyl-1-piperidyl]-7H-pyrrolo[2,3-d]pyrimidin-6-yl]phenoxy]acetic acid]	0.0001 to 1 µM	< 10000 nM
Cc1nc(C2(C)CCN(c3ncnc4[nH]c(-c5ccc(OCC(=O)O)cc5)cc34)CC2)[nH]c1-c1ccc(OC(F)F)cc1 [P-3241, 2-[4-[4-[4-[5-[4-(difluoromethoxy)phenyl]-4-methyl-1H-imidazol-2-yl]-4-methyl-1-piperidyl]-7H-pyrrolo[2,3-d]pyrimidin-6-yl]phenoxy]acetic acid]	0.0001 to 1 µM	< 10000 nM
Cc1nc(C2(C)CCN(c3ncnc4[nH]c(-c5cnn(C(F)F)c5)cc34)CC2)[nH]c1-c1ccc(OC(F)F)cc1 [P-3242, 4-[4-[5-[4-(difluoromethoxy)phenyl]-4-methyl-1H-imidazol-2-yl]-4-methyl-1-piperidyl]-6-[1-(difluoromethyl)pyrazol-4-yl]-7H-pyrrolo[2,3-d]pyrimidine]	0.0001 to 1 µM	< 10000 nM
CCOc1ccc(-c2[nH]c(C3(C)CCN(c4ncnc5[nH]c(-c6ccc(C(N)=O)cc6)cc45)CC3)nc2C)cc1C [P-3243, 4-[4-[4-[5-(4-ethoxy-3-methyl-phenyl)-4-methyl-1H-imidazol-2-yl]-4-methyl-1-piperidyl]-7H-pyrrolo[2,3-d]pyrimidin-6-yl]benzamide]	0.0001 to 1 µM	< 10000 nM
CCOc1ccc(-c2[nH]c(C3(C)CCN(c4ncnc5[nH]c(-c6ccc(OCC(=O)O)cc6)cc45)CC3)nc2C)cc1C [P-3244, 2-[4-[4-[4-[5-(4-ethoxy-3-methyl-phenyl)-4-methyl-1H-imidazol-2-yl]-4-methyl-1-piperidyl]-7H-pyrrolo[2,3-d]pyrimidin-6-yl]phenoxy]acetic acid]	0.0001 to 1 µM	< 10000 nM
